A short description of test [1]: Inhibition of JMJD6 in human […] cells assessed as decrease in cell proliferation measured after 72 hrs by CellTiter 96 AQueous one solution cell proliferation assay.
Test [2] in a line: Inhibition of JMJD6 in human HeLa cells assessed as decrease in cell proliferation measured after 72 hrs by CellTiter 96 AQueous one solution cell proliferation assay.

The IC50 is the concentration at which inhibition is half-maximal.

For `Cc1ccc2oc(=O)c(-c3nc4cnccc4[nH]3)cc2c1`, the IC50 is 10.2 µM in test [1] and 2.44 µM in test [2].
